Data on two compounds can be found in US20180284123A1, “BARCODED RAPID ASSAY PLATFORM USEFUL FOR EFFICIENT ANALYSIS OF CANDIDATE MOLECULES AND METHODS OF MAKING AND USING THE PLATFORM” (California Institute of Technology, priority 2017, published 2018).

The target in assay [1] is T1, KRAS (Homo sapiens, UniProt P01116).
T1 construct: His6-tagged human KRas Isoform 4B (residues 1-169); His6; made in house; host or cells: E. coli BL21(DE3), PQE80 vector
Nature of the assay: Multi-well ELISA, PCC ligand KRas EC50. The class given is binding. To be noted: triplicate, KRas 0→300 μM, Hill coefficient=1. The protocol: Measurement of PCC Ligand KRas EC50 Using the Multi-Well ELISA Technology
A 96-well Pierce Neutravidin Plate was washed with binding buffer (3×5 minutes at RT) before loading plate with a 1 μM solution of either blank (biotin-PEG5-NHAc) (singly) or biotinylated PCC ligand (in triplicate). The plate incubated for two hours before washing with binding buffer (3×5 minutes). Blocking buffer was added to each well and the plate blocked for one hour before undergoing washing with binding buffer (3×5 minutes). Each well was loaded with either binding buffer or KRas solution (0→300 μM), and the plate was incubated for 30 minutes. Plate washing with binding buffer (3×5 minutes) preceded incubating the plate with a (1000:1) dilution of 1° antibody (ab) rabbit anti-Ras (CST #3965) in ab buffer for thirty minutes. The plate was washed with binding buffer (3×5 minutes), loaded with a (2000:1) dilution of 2° ab goat anti-rabbit, HRP-linked ab (CST #7074) in ab buffer, and incubated for an additional thirty minutes. […] After quenching the enzymatic reaction with 1M H2SO4(aq) (100 μL) the plate was read at λ=450 nm within ten minutes. The data was double background corrected using the ab only absorbance and the dummy ligand absorbance, plotted using Prism GraphPad 7 (Sigmoidal 4PL mode with the Hill coefficient set=1), and an EC50 value was calculated.
(In general: An ELISA detects its analyte on a solid surface through an enzyme-linked reagent.)

Assay [2] addresses T1, KRAS. The assay can be described thus: B-RAP surface immunofluorescent assay, PCC ligand KRas EC50. The class given is binding. To be noted: for Avg F635, Full Centroid / Avg F635, Full Lane / avg F635, Left Part Centroid / avg F635, Middle Part Centroid / avg F635, Right Part Centroid: 10 μM KRas well of plate #1, pixel by pixel; for avg F635, Left Part Centroid: left part of centroid; for avg F635, Middle Part Centroid: middle part of centroid; for avg F635, Right Part Centroid: right part of centroid; for EC50: 13-point KRas concentration series, each point in decaplicate, Hill coefficient=1. The protocol: The barcode patterned microchip surface was partitioned into 16 individual microwells using a pre-fabricated PDMS slab. Individual biotinylated PCC candidates were complexed to specific SAC-DNA conjugates, combined into a cocktail, and then self-assembled, via DNA hybridization, onto designated barcode stripes (FIGS. 2-4). Incubation with a specific concentration of the target protein preceded incubation with a primary capture antibody and then a fluorophore-conjugated secondary detection antibody. During assay execution, each well represents a different target concentration or assay condition. Once developed, the fluorescence of the barcodes is digitized using a GenePix 4400A array scanner, with an excitation laser power optimized to a power level of 40% (60 W), which maximizes detection sensitivity while also minimizing signal saturation. Data extraction occurs using 10 μm radius circles, taken along the length of a barcode stripe. A fluorescence signal representing the average of all the pixels within a given circle is collected. A total of ten circles (data-blocks) are measured along a 180 μm span of the middle portion for each individual barcode lane in a given well. 10 μM KRas protein gave an average F635 of 47,868.7, with a standard deviation of 4154.53. 1 μM KRas protein gave an average F635 of 11437.6, with a standard deviation of 1602.202. 100 nM KRas protein gave an average F635 of 1780.6, with a standard deviation of 236.38. This illustrates the intensity across a stripe compared to the intensity from the data-block extraction. After extraction the data is background corrected. The background signal arises from (a) non-specific binding of the primary and secondary antibodies (independent of [KRas]), but can vary across different barcode stripes), and (b) non-specific binding of KRas protein ([KRas] dependent). Background (a) was assessed by measuring the average signal in the null protein well for each stripe. Background (b) was assessed by measuring the average fluorescence for the dummy ligand (Biotin* probe) that was in each well. The background subtracted data was then graphed in Graphpad Prism 7 and fitted to a sigmoidal curve (Hill coefficient=1).
Measurement of PCC Ligand KRas EC50 with the Barcode Rapid Assay Platform
Protein Incubation Buffer: Tris-buffered saline (TBS)+0.05% Tween20 (TBST)
A pre-fabricated PDMS template was aligned onto the DNA barcode microchip, and the microchip was taped into a 10 cm petri dish. The wells on the platform were wet with 50 μL PBST before filling with blocking buffer and placing into a 37° C. incubator for 1 hr. Concurrently, 40 μL 1% BSA in PBS solutions containing 750 nM of a SAC-DNA conjugate and 3.75 μM of one biotinylated PCC ligand or biotin-A20-Cy3 blank were prepared for each SAC-DNA conjugate. The biotinylated ligands were allowed to complex with the SAC protein for one hour before pooling the SAC-DNA-ligand solutions (final [SAC-DNA-ligand conjugates]=50 nM). The blocking buffer was aspirated and each well was loaded with the SAC-DNA-ligand conjugates cocktail for hybridization with the DNA barcode at 37° C. for one hour. The wells were washed with PBST (3×) before loading serially diluted solutions of KRas protein in protein buffer (0 to 400 μM). After shaking at RT for one hour, the wells were rinsed with PBST (5×), making sure to pipet up/down with the first addition of PB ST. A (100:1) dilution of CST rabbit anti-Ras Ab (#39655) in 1° ab buffer was added to each well before shaking at RT for one hour. After rinsing the wells with PBST (3×), the wells were loaded with a (200:1) dilution of Abcam goat anti-rabbit-Alexafluor 647 linked ab (ab150079) in 2° ab buffer before shaking at RT for one hour. A final rinse of the wells with PBST (3×) proceeded peeling off the PDMS slab from the barcode microchip and dipping the barcode into the following solutions: PBS, (1:1) PBS: MQ H2O, MQ H2O (2×). […]

Assay [3] deals with T1, KRAS. Nature of the assay: Barcoded rapid assay microchip binding curves of FIG. 6A/6B. To be noted: fitted curves of FIG. 6B, Hill coefficient set to 1, triplicate. The protocol:
FIG. 6A is a picture of a barcoded rapid assay microchip (60) following its use for binding curve assays of KRAS to candidate ligands. […] EC50 binding curves of 15 candidate ligands were simultaneously generated against the target protein KRAS. Each microwell (ovals) represents a distinct concentration of KRAS that was added (values are given above each well). All 15 candidate ligands were measured in triplicate in each microwell.
FIG. 6B is a graph of the EC50 binding curves generated from the barcoded rapid assay microchip of FIG. 6A. Images of the barcoded rapid assay microchip were digitized using a fluorescence image scanner and plotted as binding curves (61) for each of the candidate ligands. All binding curves were fitted to Hill functions, with the Hill coefficient set to 1.
A series of peptide ligands that were identified as candidate binders to the protein KRas, using known literature methods, were prepared according to the methods of FIG. 3, and assembled into the individual microwells of the barcoded rapid assay microchip as illustrated in FIG. 4. […] Fluorescence imaging of the individual wells was then used to generate a fluorescence intensity, vs KRAS concentration, for each of the individual candidate ligands. […]

What is called EC50 is the concentration needed to bring the measured effect to its halfway point. Low values mean greater potency, high ones weaker potency.

T1 sequence (P01116 1-169 isoform P01116-2): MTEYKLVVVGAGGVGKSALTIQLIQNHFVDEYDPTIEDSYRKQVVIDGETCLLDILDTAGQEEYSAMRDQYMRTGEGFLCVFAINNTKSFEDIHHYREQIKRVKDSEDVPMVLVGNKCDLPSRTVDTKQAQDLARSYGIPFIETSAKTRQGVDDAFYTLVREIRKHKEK

At KRAS [1], `NC(=O)CC[C@@H]1NC(=O)[C@@H](N)Cc2cn(nn2)CCCC[C@@H](C(=O)NCCOCCOCCOCCOCCOCCC(=O)NCCNC(=O)CCCC[C@@H]2SC[C@@H]3NC(=O)N[C@@H]32)NC(=O)[C@H](Cc2ccc(O)cc2)NC(=O)[C@H](Cc2ccccc2)NC(=O)[C@H](CC(N)=O)NC(=O)[C@H](CC(=O)O)NC1=O` (single isomer, unassigned) [Ligand L9a, QDNFY] returned an EC50 of 2.18 ± 2.7 µM. In addition, on KRAS [2], the “Avg F635, Full Centroid” value was found to be 18391; the “Avg F635, Full Lane” value stood at 16612; the “avg F635, Left Part Centroid” value is on record as 14966; the “avg F635, Middle Part Centroid” value was 20262. In addition, on KRAS [2], the “avg F635, Right Part Centroid” value turned out to be 20045 and it took 5.43 ± 1 µM to reach a half-maximal effect (EC50). For the same compound, the EC50 at KRAS [3] was found to be 6.55 µM.

As for `NC(=O)CC[C@@H]1NC(=O)[C@@H](N)Cc2cn(nn2)CCCC[C@@H](C(=O)NCCOCCOCCOCCOCCOCCC(=O)NCCNC(=O)CCCC[C@@H]2SC[C@@H]3NC(=O)N[C@@H]32)NC(=O)[C@H](Cc2ccc(O)cc2)NC(=O)[C@H](Cc2ccccc2)NC(=O)[C@H](CC(N)=O)NC(=O)[C@H](CC(=O)O)NC1=O` (single isomer, unassigned) [Ligand L9b, QDNFY], the EC50 on KRAS [1] amounted to 3 ± 4.9 µM. For the same compound, at KRAS [2], the “Avg F635, Full Centroid” value is on record as 45500; the “Avg F635, Full Lane” value was 41812; the “avg F635, Left Part Centroid” value is listed as 39380; the “avg F635, Middle Part Centroid” value came to 47791. On KRAS [2], the “avg F635, Right Part Centroid” value is recorded as 49508 and the EC50 amounted to 3.86 ± 0.57 µM. On KRAS [3], this compound yielded an EC50 of 6.29 µM.
